In patent US20070249725A1, “Pharmaceutical formulations of sympathetic antagonist for the treatment of chronic muscle pain” (priority 2006, published 2007):
Structures can show the parent of a compound that is named as a salt.

System: trigger point
Assay: Efficacy and dosage study for intramuscular injection of phenoxybenzamine hydrochloride: subject-reported percent improvement from baseline
Type: in vivo, human
Experimental: A total of 326 male and female subjects, approximately 15 to 85 years old with pain of 4-72 month duration were treated with various doses of phenoxybenzamine. If a potential subject had pain that was clearly muscular and clearly not due to arthritis, nerve root compression or other extramuscular cause, the subject was considered a candidate for phenoxybenzamine hydrochloride injection. Trigger points were identified by palpation. A monopolar EMG needle was then inserted into the trigger point. Another monopolar EMG needle was inserted into a nearby nontender fibers of the same muscle. […] The treatment was repeated in up to 10-12 trigger points per treatment session. Subjects could return for up to 6 treatment sessions, depending on the extent of their pain. The initial treatment was with a dose of 25 mg of phenoxybenzamine hydrochloride in an injection volume of 2 ml. […] For 318 subjects, data were available for analysis for the doses of phenoxybenzamine hydrochloride used, efficacy and incidence of serious adverse events.
Subjects were asked to quantify, in terms of percent improvement from baseline, how they felt after treatment.

SMILES: CC(COc1ccccc1)N(CCCl)Cc1ccccc1 (stereo not shown) [Phenoxybenzamine Hydrochloride, phenoxybenzamine hydrochloride]
- Mean % improvement (3 mg dose, Two month, 178 subjects (Interim data)): 54.9%
- % of Subjects with Greater than 25% Improvement (10 mg dose, Four month, 84 subjects): 63%
- % of Subjects with Greater than 25% Improvement (10 mg dose, One month, 84 subjects): 52%
- % of Subjects with Greater than 25% Improvement (10 mg dose, Three month, 84 subjects): 66%
- % of Subjects with Greater than 25% Improvement (10 mg dose, Two month, 84 subjects): 68%
- % of Subjects with Greater than 25% Improvement (25 mg dose, Four month, 16 subjects): 53%
- % of Subjects with Greater than 25% Improvement (25 mg dose, One month, 16 subjects): 57%
- % of Subjects with Greater than 25% Improvement (25 mg dose, One week, 16 subjects): 40%
- % of Subjects with Greater than 25% Improvement (25 mg dose, Two month, 16 subjects): 66%
- % of Subjects with Greater than 25% Improvement (10-12.5 mg dose, Four month, 8 subjects): 100%
- % of Subjects with Greater than 25% Improvement (10-12.5 mg dose, One month, 8 subjects): 50%
- % of Subjects with Greater than 25% Improvement (10-12.5 mg dose, Two month, 8 subjects): 83%
- subjects reported no improvement in pain (Example 1, after treatment): About 15%
